Tests used:
PPAR alpha = molecular target: T1, PPAR alpha (Homo sapiens, UniProt Q07869); experiment: Transfection assay for PPAR receptors (GAL4-LBD luciferase reporter), PPAR alpha; assay type: cell-based; details: 18–24 hrs
T1 construct: expressed in transfected cells; host or cells: HEK293
T1 sequence (Q07869 239-466 limits assumed): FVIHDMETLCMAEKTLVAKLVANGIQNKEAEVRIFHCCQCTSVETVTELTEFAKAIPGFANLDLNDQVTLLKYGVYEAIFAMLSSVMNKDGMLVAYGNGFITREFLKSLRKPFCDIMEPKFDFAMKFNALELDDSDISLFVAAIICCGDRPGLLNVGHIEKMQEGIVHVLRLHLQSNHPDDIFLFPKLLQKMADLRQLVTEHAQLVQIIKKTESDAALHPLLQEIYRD
Experimental: (§1) Transfection Assay Method for PPAR Receptors
(§2) HEK293 cells were grown in DMEM/F12 medium supplemented with 10% FBS and glutamine (Invitrogen) and incubated in a 5% CO2 incubator at 37° C. The cells were co-transfected using DMRIE-C reagent (Invitrogen) in serum free medium (Opti-MEM, Invitrogen) with two mammalian expression plasmids, one containing the DNA sequence coding for the ligand binding domains of either PPARαg or d fused to the yeast GAL4 DNA binding domain and the other containing the promoter sequence of the yeast GAL4 (UAS) fused to the firefly luciferase cDNA reporter. The next day, the medium was changed to DMEM/F12 medium supplemented with 5% charcoal treated serum (Hyclone) and glutamine. After 6 hrs the cells were trypsinized and seeded at a density of 50,000 cells/well into 96 well plates and incubated overnight as above. The cells were then treated with -test compounds or vehicle and incubated for 18–24 hrs as above. Luciferase reporter activity was measured using the Steady-Glo Luciferase Assay Kit from Promega. DMRIE-C Reagent was purchased from GIBCO Cat. No.10459-014. OPTI-MEM I Reduced Serum Medium was purchased from GIBCO (Cat. No. 31985). Steady-Glo Luciferase Assay Kit was purchased from Promega (Part#E254B).
A variety of example compounds have been made and tested, with a range of in vitro results. Below are representative compounds and data; in some cases, where multiple EC50's are shown, multiple measurements were taken. Naturally, different compounds in Formula (I) may have not have activities identical to any one compound below.

PPAR delta = molecular target: T2, PPAR delta (Homo sapiens, UniProt Q03181); experiment: Transfection assay for PPAR receptors (GAL4-LBD luciferase reporter), PPAR delta; assay type: cell-based; details: 18–24 hrs
T2 construct: expressed in transfected cells; host or cells: HEK293
T2 sequence (Q03181 211-439 limits assumed): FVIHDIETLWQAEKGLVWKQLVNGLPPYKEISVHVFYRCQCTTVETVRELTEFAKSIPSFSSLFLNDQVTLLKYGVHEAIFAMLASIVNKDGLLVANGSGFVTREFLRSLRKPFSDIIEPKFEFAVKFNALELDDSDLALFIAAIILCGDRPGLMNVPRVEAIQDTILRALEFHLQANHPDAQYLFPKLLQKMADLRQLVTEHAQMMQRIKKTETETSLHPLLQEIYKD
Experimental: as §1
as §2, with “OPTI-MEM I Reduced Serum Medium was purchased from GIBCO (Cat. No. 31985).” left out

PPAR gamma = molecular target: T3, PPAR gamma (Homo sapiens, UniProt P37231); experiment: Transfection assay for PPAR receptors (GAL4-LBD luciferase reporter), PPAR gamma; assay type: cell-based; details: 18–24 hrs
T3 construct: expressed in transfected cells; host or cells: HEK293
T3 sequence (P37231 238-503 limits assumed): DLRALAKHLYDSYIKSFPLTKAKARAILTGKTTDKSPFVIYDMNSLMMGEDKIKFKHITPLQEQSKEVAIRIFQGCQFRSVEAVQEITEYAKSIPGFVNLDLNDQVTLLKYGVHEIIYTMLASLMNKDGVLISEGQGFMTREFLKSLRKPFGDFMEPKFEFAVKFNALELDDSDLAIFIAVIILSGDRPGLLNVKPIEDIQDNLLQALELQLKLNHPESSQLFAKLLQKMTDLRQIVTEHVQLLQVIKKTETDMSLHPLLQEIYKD
Experimental: as §1
as §2, with “OPTI-MEM I Reduced Serum Medium was purchased from GIBCO (Cat. No. 31985).” left out

[1] = test system: differentiated THP-1 monocytes; details: cited from earlier work
[2] = Table 1, HEK293 cells co-transfected with PPAR LBD-GAL4 and GAL4 (UAS) luciferase reporter
[3] = Table 2, compounds of interest, HEK293 cells, PPAR LBD-GAL4 luciferase reporter

SMILES | EC50 (PPAR alpha; [2]) [nM] | EC50 (PPAR delta; [2]) [nM] | EC50 (PPAR gamma; [2]) [nM] | EC50 (PPAR alpha; [3]) [nM] | EC50 (PPAR delta; [3]) [nM] | EC50 (PPAR gamma; [3]) [nM] | ABCA1 mRNA expression [1] | cholesterol efflux [1]
Cc1cc(SCc2nc(-c3ccc(Cl)c(Cl)c3)ns2)ccc1OC1(C(=O)O)CCCC1 [Compound 15, 1-{4-[3-(3,4-Dichloro-phenyl)-[1,2,4]thiadiazol-5-ylmethylsulfanyl]-2-methyl-phenoxy}-cyclopentanecarboxylic acid] | > 3000 | > 1000 | > 3000 |  |  |  |  | 
Cc1cc(SCc2nsc(-c3ccc(C(F)(F)F)cc3)n2)ccc1OC(C)(C)C(=O)O [Compound 16, 2-Methyl-2-{2-methyl-4-[5-(4-trifluoromethyl-phenyl)-[1,2,4]thiadiazol-3-ylmethylsulfanyl]-phenoxy}-propionic acid] | 425 | 26 | > 3000 |  |  |  |  | 
Cc1cc(SCc2nsc(-c3ccc(Cl)cc3)n2)ccc1OC(C)(C)C(=O)O [Compound 18, 2-{4-[5-(4-Chloro-phenyl)-[1,2,4]thiadiazol-3-ylmethylsulfanyl]-2-methyl-phenoxy}-2-methyl-propionic acid] | > 3000 | 237 | > 3000 |  |  |  |  | 
Cc1cc(SCc2nsc(-c3ccc(Cl)c(Cl)c3)n2)ccc1OC(C)(C)C(=O)O [Compound 19, 2-{4-[5-(3,4-Dichloro-phenyl)-[1,2,4]thiadiazol-3-ylmethylsulfanyl]-2-methyl-phenoxy}-2-methyl-propionic acid] | > 3000 | 229 | > 3000 |  |  |  |  | 
Cc1ccc(-c2nsc(COc3ccc(OC(C)(C)C(=O)O)c(C)c3)n2)cc1Cl [Compound 20, 2-{4-[3-(3-Chloro-4-methyl-phenyl)-[1,2,4]thiadiazol-5-ylmethoxy]-2-methyl-phenoxy}-2-methyl-propionic acid] | 297 | 148 | > 3000 |  |  |  |  | 
Cc1cc(OCc2nc(-c3ccc(C(F)(F)F)c(F)c3)ns2)ccc1OC(C)(C)C(=O)O [Compound 21, 2-{4-[3-(3-Fluoro-4-trifluoromethyl-phenyl)-[1,2,4]thiadiazol-5-ylmethoxy]-2-methyl-phenoxy}-2-methyl-propionic acid] | 85 | 3 | > 3000 |  |  |  |  | 
Cc1ccc(-c2nsc(COc3ccc(OC(C)(C)C(=O)O)c(C)c3)n2)cc1C [Compound 22, 2-{4-[3-(3,4-Dimethyl-phenyl)-[1,2,4]thiadiazol-5-ylmethoxy]-2-methyl-phenoxy}-2-methyl-propionic acid] | 643 | 534 | > 3000 |  |  |  |  | 
Cc1cc(OCc2nc(-c3ccc(OC(F)(F)F)cc3)ns2)ccc1OC(C)(C)C(=O)O [Compound 24, 2-Methyl-2-{2-methyl-4-[3-(4-trifluoromethoxy-phenyl)-[1,2,4]thiadiazol-5-ylmethoxy]-phenoxy}-propionic acid] | 93.5 | 12.3 | > 3000 |  |  |  |  | 
Cc1cc(OCc2nc(-c3ccc(OC(F)(F)F)c(Cl)c3)ns2)ccc1OC(C)(C)C(=O)O [Compound 25] | 96.8 | 13 | > 3000 |  |  |  |  | 
Cc1cc(OCc2nc(-c3ccc(Cl)c(Cl)c3)ns2)ccc1OC(C)(C)C(=O)O [Compound 26, 2-{4-[3-(3,4-Dichloro-phenyl)-[1,2,4]thiadiazol-5-ylmethoxy]-2-methyl-phenoxy}-2-methyl-propionic acid] | 504 | 114 | > 3000 |  |  |  |  | 
Cc1cc(SCCc2nc(-c3ccc(Cl)c(Cl)c3)ns2)ccc1OC(C)(C)C(=O)O [Compound 27, 2-(4-{2-[3-(3,4-Dichloro-phenyl)-[1,2,4]thiadiazol-5-yl]-ethylsulfanyl}-2-methyl-phenoxy)-2-methyl-propionic acid] | 123 | 9.3 | > 1000 |  |  |  |  | 
Cc1cc([S+]([O-])Cc2nc(-c3ccc(Cl)c(Cl)c3)ns2)ccc1OC(C)(C)C(=O)O (centres unmarked) [Compound a, 2-{4-[3-(3,4-Dichloro-phenyl)-[1,2,4]thiadiazol-5-ylmethanesulfinyl]-2-methyl-phenoxy}-2-methyl-propionic acid] |  |  |  | > 3000 | 412 | > 3000 |  | 
Cc1cc(SCc2csnc2-c2ccc(C(F)(F)F)cc2)ccc1OCC(=O)O [Compound d, {2-Methyl-4-[3-(4-trifluoromethyl-phenyl)-isothiazol-4-ylmethylsulfanyl]-phenoxy}-acetic acid] |  |  |  | > 3000 | 150 | > 3000 |  | 
Cc1cc(SCc2sc(-c3ccc(C(F)(F)F)cc3)nc2C)ccc1OCC(=O)O [GW501516] |  |  |  |  |  |  | induced | enhanced
